The record followed here is article PMC9030166, “Natural Phaeosphaeride A Derivatives Overcome Drug Resistance of Tumor Cells and Modulate Signaling Pathways” (Pharmaceuticals, 2022).

The test system of one data set is HCT-116. Briefly: MTT cytotoxicity, HCT-116 colorectal cancer cells. Format: cell-based, human. Particulars: Homo sapiens, HCT-116, adhesive tumor culture, 48 h. An excerpt: (§1) Cell cultures used in the work: adhesive cultures HBL-100 cells (cells of a normal mammary gland epithelium, immortalized by the SV40 virus and acquired tumorigenicity); MCF-7 breast cancer cells; PC-3 prostate adenocarcinoma cells; HCT-116 colorectal cancer cells; non-small cell lung cancer cells A549; human embryonic kidney cells HEK293; suspension cultures (NCI-H929 and RPMI8226 multiple myeloma cells), K562 chronic myeloid leukemia cells; THP-1 acute monocytic leukemia cells; and Jurkat acute T-cell leukemia cells. We also used several primary cultures of soft tissue sarcomas at 3–4passeges, kindly provided by T.I. Fetisov (The Ethics Committee of N.N. Blokhin NMRCO, protocol code 18-28-09095 and date of approval 28 September 2018).
(§2) Modifications of cell lines: K562/i-S9 is a clone obtained after transfection of K562 cells with the ABCB1 (MDR1) gene-encoding P-glycoprotein [36]. Cells HBL-100/Dox and K562/i-S9_Dox are cells obtained by long-term selection with increasing concentrations of doxorubicin (Sigma-Aldrich, St. Louis, MO, USA) from HBL-100 and K562/i-S9 cells, respectively. MCF-7, A594 cells, and primary cultures of soft tissue sarcomas were cultured in DMEM medium (PanEko, Russia), PC-3 and HCT-116 cells and all suspension cultures in RPMI1640 medium (PanEko, Russia) supplemented with 10% fetal bovine serum (GE Healthcare LifeSciences, USA), and gentamicin at a concentration of 40 μg/mL at 37 °C and 5% CO2.
(§3) Cells MCF-7, PC-3, A549, and HCT-116, and primary cultures of STSwere seeded in 96-well plates, 6 × 10^3 cells per well in 90 μL of culture medium. Suspension cultures were seeded at a concentration of 25 × 10^3 cells per well in 135 μL of medium. The test substances were dissolved in DMSO (Applichem, Council Bluffs, IA, USA) until a concentration of 1 × 10^−^2 M was obtained; for the subsequent dilution of the substances, a serum-free culture medium was used. The next day, for adhesive cultures, and on the same day, for suspension cultures, substances were added to the plates in a volume of 10 μL (adhesive cultures) and 15 μL (suspension cultures) per well at various concentrations; each concentration was added in 3–4 repetitions. The cells were cultured in the presence of substances for 48 h. Then, MTT reagent (PanEko, Moscow, Russia) was added to the wells at a concentration of 5 mg/mL in a volume of 20 μL per well. After 1.5–2 h, the medium with the reagent was removed, and the precipitate of the crystals of formazan was dissolved in 60 μL of DMSO. The optical density was determined using a Multiskan FC spectrophotometer (Thermo Scientific, Waltham, MA, USA) at a wavelength of 540 nm.
(§4) Based on the results of the experiments, a schedule was plotted of the dependence of the percentage of surviving cells (from control) on the concentration of the compound, and the sought concentration IC50 was calculated. The experiments were carried out in 3–4 times.

Another data set relates to MCF-7. Briefly: MTT cytotoxicity, MCF-7 breast cancer cells. The note with it: Homo sapiens, MCF7, adhesive tumor culture, 48 h. The data set is classed as cell-based.
Excerpt: as §1, §2, §3, §4

The next data set relates to PC3. In words: MTT cytotoxicity, PC-3 prostate adenocarcinoma cells. Format: cell-based, human. The note with it: Homo sapiens, PC-3, adhesive tumor culture, 48 h.
Excerpt: as §1, §2, §3, §4

The next data set concerns A549. In words: MTT cytotoxicity, A549 non-small cell lung cancer cells. Particulars: Homo sapiens, A549, adhesive tumor culture, 48 h. Format: cell-based, human.
Excerpt: as §1, §2, §3, §4

In the next data set the test system is HEK293. Briefly: MTT cytotoxicity, human embryonic kidney cells HEK293. The data set is classed as cell-based. Particulars: 48 h.
Excerpt: as §1, §3, §4

The subject of the next data set is NCI-H929. In words: MTT cytotoxicity, NCI-H929 multiple myeloma cells. The data set is classed as cell-based. The note with it: Homo sapiens, suspension culture, 48 h.
Excerpt: as §1, §2, §3, §4

The next data set relates to THP-1. In words: MTT cytotoxicity, THP-1 acute monocytic leukemia cells. Format: cell-based. Particulars: Homo sapiens, suspension culture, 48 h.
Excerpt: as §1, §2, §3, §4

The next data set relates to K562. Briefly: MTT cytotoxicity, K562 chronic myeloid leukemia cells. Format: cell-based. Particulars: Homo sapiens.
Excerpt: as §1, §2, §3, §4

A further data set has as its system RPMI8226. In words: MTT cytotoxicity, RPMI8226 multiple myeloma cells. Format: cell-based. The note with it: Homo sapiens, RPMI-8226, suspension culture, 48 h.
Excerpt: as §1, §2, §3, §4

Another data set has as its system Jurkat. Briefly: MTT cytotoxicity, Jurkat acute T-cell leukemia cells. Format: cell-based. The note with it: Homo sapiens, suspension culture, 48 h.
Excerpt: as §1, §2, §3, §4

Data set [1] deals with CMT № 1 (Extraskeletal Ewing’s Sarcoma). In words: MTT cytotoxicity, primary culture of soft tissue sarcoma CMT № 1. The data set is classed as cell-based. The note with it: Homo sapiens, 48 h.
Excerpt: (§5) It is believed that such cultures have a molecular profile that corresponds more with cells from the human body, in comparison with that of stable cultures of tumor cells (Table 3).
as §1, §2
as §3, with “Then, MTT reagent (PanEko, Moscow, Russia) was added to the wells at a concentration of 5 mg/mL in a volume of 20 μL per well. After 1.5–2 h, the medium with the reagent was removed, and the precipitate of the crystals of formazan was dissolved in 60 μL of DMSO.” left out
(§6) Based on the results of the experiments, a schedule was plotted of the dependence of the percentage of surviving cells (from control) on the concentration of the compound, and the sought concentration IC50 was calculated. […]

For data set [2], the system named is CMT № 2 (Malignant Schwannoma). Briefly: MTT cytotoxicity, primary culture of soft tissue sarcoma CMT № 2. The data set is classed as cell-based. The note with it: Homo sapiens, 48 h.
Excerpt: as §5, §1, §2
as §3, with “Then, MTT reagent (PanEko, Moscow, Russia) was added to the wells at a concentration of 5 mg/mL in a volume of 20 μL per well. After 1.5–2 h, the medium with the reagent was removed, and the precipitate of the crystals of formazan was dissolved in 60 μL of DMSO.” left out
as §6

Data set [3] deals with CMT № 3 (Epithelial Sarcoma (Metastasis)). In words: MTT cytotoxicity, primary culture of soft tissue sarcoma CMT № 3. The note with it: Homo sapiens, 48 h. Format: cell-based.
Excerpt: as §5, §1, §2
as §3, with “Then, MTT reagent (PanEko, Moscow, Russia) was added to the wells at a concentration of 5 mg/mL in a volume of 20 μL per well. After 1.5–2 h, the medium with the reagent was removed, and the precipitate of the crystals of formazan was dissolved in 60 μL of DMSO.” left out
as §6

The next data set concerns K562/i-S9. Briefly: MTT cytotoxicity, resistant K562/i-S9 cells (ABCB1 transfected). Format: cell-based, human.
Excerpt: (§7) At the next stage, the cytotoxic activity of compounds 1, 2, and 9 (Scheme 2) was investigated on several pairs of cell lines that differ in the expression of P-gp and the method by which they were obtained. K562/i-S9 cells are the result of the ABCB1 transfection into K562 cells, which increases P-gp expression, but should not seriously affect other signaling pathways that could lead to drug resistance. K562/i-S9_Dox cells were obtained from K562/i-S9 by selection with low concentrations of doxorubicin to increase P-gp expression. Subline HBL-100/Dox is a derivative of HBL-100 cells, obtained by long-term selection with increasing concentrations of doxorubicin, which led not only to an increase in P-gp expression, but also to a change in the signaling pathways in this subline. Cells of the K562/i-S9_Dox subline express the highest level of P-gp: 94.7% ± 2.3 (p < 0.0001 relative to K562, and p = 0.04 relative to K562/i-S9). In cells of the K562/i-S9 line, the expression of P-gp is 80% ± 8.2 (p < 0.0001 relative to K562). At 0.7% ± 0.5, P-gp is practically not expressed in K562 cells (Figure 1).
as §2, §3, §4

The next data set deals with K562/i-S9_Dox. Briefly: MTT cytotoxicity, resistant K562/i-S9_Dox cells (P-gp overexpression). Format: cell-based, human.
Excerpt: as §7, §2, §3, §4

The subject of the next data set is HBL-100. Briefly: MTT cytotoxicity, sensitive HBL-100 cells. The data set is classed as cell-based. The note with it: Homo sapiens, 48 h.
Excerpt: as §1, §3, §4

The subject of the next data set is HBL-100/Dox. Briefly: MTT cytotoxicity, resistant HBL-100/Dox cells. Format: cell-based, human. The note with it: for IC50: Homo sapiens, HBL-100, resistant version, MTT, 48 h.
Excerpt: At the next stage, the cytotoxic activity of compounds 1, 2, and 9 (Scheme 2) was investigated on several pairs of cell lines that differ in the expression of P-gp and the method by which they were obtained. […] K562/i-S9_Dox cells were obtained from K562/i-S9 by selection with low concentrations of doxorubicin to increase P-gp expression.
as §2, §3
The experiments were carried out in 3–4 times.

[4] abbreviates: K562, suspension culture, 48 h (Table 2).

As to `C=C1C2=C(C(=O)N1OC)[C@@H](N(C)CCO)[C@@](C)(O)[C@H](CCCCC)O2` [Compound 8, (2S,3R,4R)-3-hydroxy-4-[(2-hydroxyethyl)(methyl)amino]-6-methoxy-3-methyl-7-methylene-2-pentyl-3,4,6,7-tetrahydropyrano[2,3-c]pyrrol-5(2H)-one], the IC50 (as a rule, the concentration that inhibits the measured activity by half) with HCT-116 was 7.5 ± 1 µM; in the data set with MCF-7, 1.8 ± 0.4 µM; with PC3, 3.3 ± 0.6 µM; in the data set with A549 it was 16.3 ± 0.9 µM; with HEK293, 3.8 ± 0.2 µM; in the data set with NCI-H929 it was 0.9 ± 0.3 µM. Moreover, the half-maximal inhibitory concentration (IC50) in the data set on THP-1 was 1.8 ± 0.2 µM; in the data set with K562 (setting [4]), 3.4 ± 0.3 µM; with RPMI8226 it was 1.5 ± 0.4 µM; in the data set with Jurkat, 1 ± 0.3 µM; in [1], 3.9 ± 0.8 µM; in data set [2] it was 2.3 ± 0.8 µM. Besides, the IC50 in data set [3] amounted to 4.8 ± 0.5 µM.
As for `COc1cccc2c1C(=O)c1c(O)c3c(c(O)c1C2=O)C[C@@](O)(C(=O)CO)C[C@@H]3O[C@H]1C[C@H](N)[C@H](O)[C@H](C)O1` [Doxorubicin, doxorubicin, reference compound], the IC50 worked out at 0.36 ± 0.17 µM with K562 (sensitive K562 cells (Table 4), 48 h); 3.9 ± 1.6 µM in the data set on K562/i-S9 (Homo sapiens, K562i/S9, resistant version, ABCB1 transfected, MTT, 48 h); 10.3 ± 1.2 µM with K562/i-S9_Dox (Homo sapiens, K562, resistant version, doxorubicin selected, MTT, 48 h); 0.23 ± 0.03 µM in the data set on HBL-100; 128 ± 7.4 µM in the data set with HBL-100/Dox. Further, in the data set on K562/i-S9 (ratio of IC50 values, Table 4), the “resistance of K562/i-S9 cells relative to K562” value was determined as 11 times. Besides, in the data set with K562/i-S9_Dox (ratio of IC50 values, Table 4), the “resistance of K562/i-S9_Dox cells relative to K562” value came to 28 times. Further, in the data set on K562/i-S9_Dox (ratio of IC50 values, Table 4), the “resistance of K562/i-S9_Dox relative to K562/i-S9” value is 2.6 times. Besides, the “resistance of HBL-100/Dox cells relative to HBL-100” value with HBL-100/Dox (ratio of IC50 values, Table 5) amounted to 556 times.
Regarding `COc1cc([C@@H]2c3cc4c(cc3[C@@H](O[C@@H]3O[C@@H]5CO[C@@H](C)O[C@H]5[C@H](O)[C@H]3O)[C@H]3COC(=O)[C@H]23)OCO4)cc(OC)c1O` [Etoposide, etoposide, reference compound], the concentration for half-maximal inhibition (IC50) with HCT-116 amounted to 21 ± 9.9 µM; with MCF-7, 8.9 ± 2.3 µM; with PC3 it was 27.1 ± 3.2 µM; in the data set on A549, 65.3 ± 5.2 µM; in the data set on HEK293, 2 ± 0.5 µM; in the data set with NCI-H929 it was 1.4 ± 0.5 µM. Further, the IC50 in the data set with THP-1 was 1.8 ± 0.2 µM; with K562 (setting [4]) it was 5.5 ± 3 µM; in the data set on RPMI8226, 7.2 ± 1.9 µM; in the data set with Jurkat, 0.9 ± 0.3 µM; in the data set with HBL-100, 4.7 ± 0.9 µM; in the data set with HBL-100/Dox it was 111 ± 8.3 µM.
